Experiments:
[1] = biological target: T1, recombinant human ACE2 (rhACE2) (Homo sapiens, UniProt Q9BYF1); assay: fluorogenic peptide hydrolysis assay; format: biochemical
T1 construct: recombinant human ACE2 from Calbiochem for the constants
Description: fluorogenic peptide hydrolysis assay on recombinant human ACE2 (rhACE2)

[2] = test system: T2, B38-CAP; assay: fluorogenic peptide hydrolysis assay; format: biochemical, Paenibacillus sp. B38; details: pH 7.5 HEPES, 0.3 M NaCl, 0.01% Triton X-100, 37 °C, 30 min; fluorogenic ACE2 substrate
T2 construct: no tag mentioned
Description: fluorogenic peptide hydrolysis assay on B38-CAP

T1 sequence (Q9BYF1 18-740 limits assumed): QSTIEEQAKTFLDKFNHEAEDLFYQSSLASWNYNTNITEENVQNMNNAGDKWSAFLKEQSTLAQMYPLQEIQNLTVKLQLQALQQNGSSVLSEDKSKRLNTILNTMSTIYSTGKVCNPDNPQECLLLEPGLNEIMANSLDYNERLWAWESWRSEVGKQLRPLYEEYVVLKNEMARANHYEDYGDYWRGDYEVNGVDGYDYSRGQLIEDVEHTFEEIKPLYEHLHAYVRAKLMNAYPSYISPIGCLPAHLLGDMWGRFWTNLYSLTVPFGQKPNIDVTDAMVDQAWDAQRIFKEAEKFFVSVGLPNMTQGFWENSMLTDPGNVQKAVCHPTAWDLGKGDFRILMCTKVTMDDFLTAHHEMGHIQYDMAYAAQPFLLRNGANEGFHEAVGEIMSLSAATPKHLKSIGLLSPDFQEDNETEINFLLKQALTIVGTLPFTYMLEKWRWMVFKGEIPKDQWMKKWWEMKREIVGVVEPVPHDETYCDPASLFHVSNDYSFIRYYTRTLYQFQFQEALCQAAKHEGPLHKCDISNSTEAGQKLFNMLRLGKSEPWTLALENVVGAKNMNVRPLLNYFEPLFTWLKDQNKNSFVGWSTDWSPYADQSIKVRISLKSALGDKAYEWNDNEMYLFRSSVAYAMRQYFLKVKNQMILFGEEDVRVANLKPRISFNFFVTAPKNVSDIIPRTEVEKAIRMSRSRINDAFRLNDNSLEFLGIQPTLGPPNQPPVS

IC50 [1]: 0.34 ± 0.0501 nM | IC50 [2]: 0.71 ± 0.173 nM
SMILES: CC(C)C[C@H](N[C@@H](Cc1cncn1Cc1cc(Cl)cc(Cl)c1)C(=O)O)C(=O)O [MLN-4760]

From paper PMC7044196, “B38-CAP is a bacteria-derived ACE2-like enzyme that suppresses hypertension and cardiac dysfunction” (Nature Communications, 2020)
